Reference: patent publication US20030091533A1, “Regulation of mononuclear phagocyte stimulation” (priority 2001, published 2003)

B1: IFN-γ: Interferon gamma, primes mononuclear phagocytes, 200 U/ml (protein, UniProt P01579 24-161, looked up)
Interferon gamma: QDPYVKEAENLKKYFNAGHSDVADNGTLFLGILKNWKEESDRKIMQSQIVSFYFKLFKNFKDDQSIQKSVETIKEDMNVKFFNSNKKKRDDFEKLTNYSVTDLNVQRKAIHELIQVMAELSPAAKTGKRKRSQMLFRG

Assays:
LPS-stimulated PBM [1] = assay: TGF-β1 release by ELISA, PBM; assay type: cell-based, human; settings: for potentiation of TGF-β1 production by LPS-stimulated PBM: preincubated 24 hour
Method: FIG. 6 depicts the effect of IL-9, IL-4 and IFN-γ on the release of IL-10 (A) and TGF-β1 (B) by LPS-stimulated PBM and AM cultured under the same conditions as described in FIG. 5 Example I. D. TGF-β1 was determined by ELISA in crude supernatants (untreated supernatants) and in ethanol-acid (acid-treated) supernatants, using a kit from Biosource for determining TGF-β1 release from its latent complexes. An ELISA kit from CLB (Amsterdam, The Netherlands) was used to determine IL-10 following the manufacturer's protocol. […] Data are means±SEM (n=3). *P<0.05 compared with unstimulated cells; **P<0.05 compared with cells preincubated with medium.
Cells (1×10^6 PBM or 0.5×10^6 AM/well) were distributed in 24-well plates (Falcon), preincubated in cRPMI for 24 hours at 37° C., 5% CO2 with cytokines (IL-9, IL-4 (20 ng/ml) and IFN-γ (200 U/ml)) and stimulated for 20 hours with 1 μg/ml LPS without removing cytokines. Supernatants were harvested and frozen at −20° C. until cytokine titration. Release of TNF-α was quantified by a cytotoxicity bioassay using WEHI 164 cells clone 13, as previously described (Espevik and Nissen-Meyer, J. Immunol. Methods, 95:99-105 (1986) incorporated herein by reference), using rhTNF-α from Boehringer as a standard. IL-8, IL-10 and TGF-β1 concentrations were determined by ELISA. A kit from CLB (Amsterdam, The Netherlands) was used for IL-10 quantitation, following the manufacturer's protocol. A kit from Biosource allowed to determine TGF-β1 after the release from its latent complexes by a treatment of supernatants with ethanol acid (‘acid-treated supernatants’); TGF-P 1 was also assessed in crude supernatants (‘untreated supernatants’). To assay for IL-8, 96-well plates were coated overnight at 4° C. with 4 μg/ml anti-hIL-8 mAb (Sigma, clone 6217.11) in 100 mM sodium carbonate buffer (pH 9.6). After washings in PBS containing 0.1% v/v Tween 20 and blocking for 1 hour at 37° C. with 1% w/v BSA in the same buffer, rhIL-8 standards (Biosource International) and supernatants were incubated for 2 hour at 37° C. Plates were then incubated with 20 ng/ml biotinylated polyclonal anti-hIL-8 Ab (R§D Systems) in blocking buffer and, after washings, with HRP-conjugated streptavidin (Sigma). The reaction was then developed in 0.03% v/v H2O2 substrate and 0.42 mM 3,3′,5,5′-tetramethylbenzidine as chromogen in 100 mM sodium acetate/citric acid buffer (pH 4.9), stopped with 2 M H2SO4, and read in a plate spectrometer at 450 nm. The sensitivity of the TNF-α bioassay was 0.2 pg/ml, and that of IL-8, IL-10, and TGF-β1 immunoassays 10 pg/ml, 2 pg/ml, and 2 pg/ml, respectively. All supernatants were assayed in duplicate.

LPS-stimulated PBM [2] = assay: Intracellular oxidative burst, DCFH oxidation assay, PBM; assay type: cell-based, human; settings: for oxidative burst in LPS-stimulated PBM with IFN-γ: preincubated 24 hour with cytokine 20 ng/ml in the presence of IFN-γ 200 U/ml, LPS 1 μg/ml 20 hour; for LPS-stimulated oxidative burst in PBM: preincubation 24 hour with cytokine 20 ng/ml, then LPS 1 μg/ml 20 hour, without IFN-γ; for Oxidative burst (nmoles DCF/mg protein): LPS 1 μg/ml 20 h
Method: Intracellular oxidative capacity was assessed essentially as described by Bass et al., J. Immunol., 130:1910-1917 (1983) (incorporated herein by reference) as described infra.
Cells (0.2×10^6) were preincubated for 24 hour with IL-9 or IL-4 (20 ng/ml) in the presence of IFN-γ (200 U/ml) before stimulation for 20 hour with LPS (1 μg/ml). The intracellular oxidative capacity was measured through the DCFH oxidation assay as describe herein. FIG. 3 depicts the effect of IFN-γ on the inhibition mediated by IL-9 and IL-4 on the oxidative burst in LPS-stimulated PBM (A) and AM (B).
Table 1. Specific blockade of the IL-9 inhibitory effect on oxidative burst in LPS-15 stimulated PBM and AM by anti-hIL-9R mAb. Cells (0.2×10^6) were preincubated with neutralizing mAb against hIL-9R (AH9R7, 10 μg/ml), or with control mIgG2b (10 μg/ml), 1 hour before incubation with IL-9 (20 ng/ml) for 24 hour without removing mAb, and stimulated by LPS (1 μg/ml) for 20 h. Intracellular oxidative capacity was evaluated by the DCFH oxidation assay. Data are means±SEM obtained from three experiments, triplicate conditions being performed in each experiment. *P<0.001 compared with cells preincubated with IL-9 (with or without control mIgG2b).
Cells (0.2×10^6) were preincubated with neutralizing mAb, either against TGF-β1 (30 μg/ml) or against IL-10Rβ (30 μg/ml) or with control mIgG1 (30 μg/ml), 2 hour before incubation with IL-9 (20 ng/ml) for 24 hour without removing the mAb, and stimulated with LPS (1 μg/ml) for 20 h. Intracellular oxidative capacity was evaluated by the DCFH oxidation assay.
Intracellular oxidative capacity was assessed as described by Bass et al., (Bass et al., J. Immunol. 130:1910-1917 (1983)). Briefly, the PBM and AM samples were distributed in 96-well plates with flat bottoms (Falcon) to provide 0.2×10^6cells/well. The cells were preincubated for 24 hour at 37° C., 5% CO2 with cytokines (200 u/ml for IFN-y, 20 ng/ml for IL-9 and 20 ng/ml; for IL-4) in cRPMI before being stimulated for 20 hours with LPS (1 μg/ml) without removing the cytokines. At the end of incubation with cytokines and/or LPS, cells were loaded for 15 min with 15 μM DCFH-DA in cRPMI which, after passive penetration into cells, is hydrolyzed into nonfluorescent polar DCFH and trapped inside the cells. DCFH is then oxidized into highly fluorescent DCF according to the intracellular amount of hydrogen peroxide (H2O2) produced by the respiratory burst. After three washings with phosphate-buffered saline (PBS, pH 7.4), cells were lysed in 0.1% v/v Triton X100 (Sigma) in PBS, and fluorescence was quantified in a computerized microplate spectrofluorimeter (Packard Instruments, Downers Grove, Ill., USA) at 485 nm excitation/530 nm emission wavelengths. DCF concentrations were deduced from a standard curve of known concentrations of fluorescent DCF (ranging from 0.08 to 10 μM in lysis buffer) Results were corrected for total protein concentration determined in cell lysates by the bicinchoninic acid-based method (Pierce, Rockford, Ill., USA), and were expressed as nmoles DCF/mg cell protein.

Molecule | potentiation of TGF-β1 production by LPS-stimulated PBM (LPS-stimulated PBM [1]; LPS 20 h) | oxidative burst in LPS-stimulated PBM with IFN-γ (LPS-stimulated PBM [2]) | LPS-stimulated oxidative burst in PBM (LPS-stimulated PBM [2]) | production of TGF-β1 by LPS-stimulated PBM (LPS-stimulated PBM [1]; acid-treated supernatants, preincubated 24 hour 20 ng/ml, LPS 20 h, medium-preincubated 586±64) | modulation of TGF-β1 in unstimulated PBM (LPS-stimulated PBM [1]; without LPS) | Oxidative burst (nmoles DCF/mg protein) (LPS-stimulated PBM [2]; Table 1, PBM, mAb 10 μg/ml 1 hour before IL-9 20 ng/ml 24 hour, means±SEM, medium 10.1 ± 0.4) | Oxidative burst (nmoles DCF/mg protein) (LPS-stimulated PBM [2]; Table 3, PBM, mAb 30 μg/ml 2 hour before IL-9 20 ng/ml 24 hour, means±SD, Medium 10.3 ± 0.2) | effect on LPS-stimulated oxidative burst in PBM (LPS-stimulated PBM [2]; preincubation 24 hour, LPS 20 hour)
IL-4: Th2 cytokine interleukin-4 used as comparator, 20 ng/ml | not observed | 19.6±2.2 nmoles DCF/mg protein | 9.4±0.6 nmoles DCF/mg protein |  |  |  |  | 
IL-9: Human IL-9 purified from SF9 insect cell cultures infected with recombinant baculovirus |  | 10.5±2.1 nmoles DCF/mg protein | 10.7±0.5 nmoles DCF/mg protein | 1687 ± 94 pg/mL | no modulation | 10.7 ± 0.5 nmoles DCF/mg protein | 10.8 ± 0.6 nmoles DCF/mg protein | 
B1 | not observed |  |  |  |  |  |  | slightly increased
